Experiments:
Format in all cases: cell-based
[1] = test system: Pseudomonas aeruginosa DSM1117; test: Photodynamic inactivation of Pseudomonas aeruginosa with Safranin O (FIG. 1B)
Source text: (§1) One of the major problems for the use of anti-microbial PDT is a blocking action of the components of the blood whose presence decreases the activity of photosensitizers.
(§2) The antibacterial effect strongly depends on the kind of bacterial cells.
(§3) FIG. 1, Graph showing photodynamic inactivation of Staphylococcus aureus DSM1104 (FIG. 1A), Pseudomonas aeruginosa DSM1 117 (FIG. 1B), and Escherichia coli DSM8698 (FIG. 1C) by treatment with Safranin O as a photo sensitizer.

Escherichia coli DSM8698 = test: Photodynamic inactivation of Escherichia coli with Safranin O (FIG. 1C); settings: compared with Staphylococcus aureus
Source text: as §1, §2, §3

[2] = test system: Staphylococcus aureus, Pseudomonas aeruginosa and Escherichia coli; test: Photodynamic inactivation of bacteria with Safranin O (FIG. 1)
Source text: as §1, §2, §3

[3] = test system: Staphylococcus aureus DSM1104; test: Photodynamic inactivation of Staphylococcus aureus with Safranin O (FIG. 1A)
Source text: as §1, §2, §3

[4] = test system: Gram-positive and Gram-negative bacteria; test: Photodynamic inactivation of bacterial cell suspension using photosensitizers 1, 3a-e (CFU/ml after 665 nm laser irradiation); settings: in the presence of blood (PBS with 10% human blood), 30 min incubation, about 100 J/cm^2, FIG. 2
Method: In the preferred embodiment, the antibacterial treatment includes the administration of photosensitizers to an environment containing bacteria and is allowed to incubate for a sufficient period of time thus providing accumulation of the photosensitizer into the bacterial cells. The incubation time varies depending on many factors. In this experiment it is incubated for 30 min before being irradiated with 665 nm laser at 100 J/cm^2 to initiate photodestruction of bacterial cells. The photosensitizer can be administered either by systemic application, or local injection in the affected area. For infection on or near the skin it can be administered topically.
The organisms used in our studies were three members of the microflora of wounds: Staphylococcus aureus DSM1104, Gram-positive; Escherichia coli DSM8698, Gram-negative; Pseudomonas aeruginosa DSM1117, Gram-negative.
Cultured cells are suspended in sterile phosphate-buffered saline (PBS) or sterile PBS supplemented with 10% sterile horse blood serum, 10% human plasma or 10% human blood respectively. The final OD (Optical Density) at 600 nm, 1 cm in all cases was 0.03. The bacterial suspensions are placed into sterile black well plates with clear bottoms. […]

SMILES	effect of added serum, plasma or blood on photodynamic activity against Pseudomonas aeruginosa ([1]; addition of 10% of horse serum or human plasma or whole blood)	susceptibility of Gram-negative cells of Pseudomonas aeruginosa to killing by PDT ([1]; compared with Staphylococcus aureus, FIG. 1)	susceptibility of Gram-negative cells of Escherichia coli to killing by PDT (Escherichia coli DSM8698)	bactericidal photodynamic activity ([2]; in PBS buffer)	change of bactericidal photodynamic activity ([2]; when blood serum or blood is added)	killing of Gram-positive cells of Staphylococcus aureus by PDT [3]	photodynamic activity against Gram-positive and Gram-negative bacteria [4]
Cc1cc2nc3cc(C)c(N)cc3[n+](-c3ccccc3)c2cc1N.[Cl-] [Safranin O]	practically block the photodynamic activity	more resistant to killing by PDT	more resistant to killing by PDT	high bactericidal photodynamic activity	decreased remarkably	could be killed sufficiently	–
CCC1=C(C)c2cc3[nH]c(cc4nc(c5c6[nH]c(cc1n2)c(C)c6C(=O)C5)[C@@H](CCC(=O)O)C4C)c(C)c3CC (stereo partly drawn) [compound 1, meso pyropheophorbide-a]	–	–	–	–	–	–	not active
